Laboratory results as given in US20250144067A1, “PERSONALIZED STARVATION THERAPY FOR CANCER” (Faeth Therapeutics, Inc., priority 2021, published 2025).
Structures can show the parent of a compound that is named as a salt. Where two headings read alike, the source gives them in different places.

Assays:
[1] = test system: NCI-H292 lung cancer cells; experiment: FDA drug screening, complete media vs cholesterol-free media without statin (TABLE 1); type: cell-based, human
[2] = test system: NCI-H292 lung cancer cells; experiment: FDA drug screening, complete media vs cholesterol-free media with simvastatin (TABLE 2); type: cell-based, human
[3] = Complete minus Cholesterol-free, […]
[4] = NCI-H292 cells, FDA drug library screen, cholesterol-free media without statin
[5] = NCI-H292 cells, FDA drug library screen, complete media
[6] = NCI-H292 cells, cholesterol-free media with simvastatin 0.04 μM, […]
[7] = NCI-H292 cells, complete media, […]
[8] = complete media minus cholesterol-free media + simvastatin, […]
[9] = NCI-H292 cells, cholesterol-free media without statin
[10] = NCI-H292 cells, FDA library drug in cholesterol-free media with simvastatin 0.04 μM
[11] = NCI-H292 cells, FDA library drug in complete media
[12] = Complete minus Cholesterol-free, >0 enhanced anti-cancer activity, about 0 neutral, <0 antagonist
[13] = NCI-H292 cells, cholesterol-free media with simvastatin 0.04 μM, cell growth value in FDA drug screen
[14] = complete media minus cholesterol-free media + simvastatin, >0 enhanced anti-cancer activity, about 0 neutral, <0 antagonist
[15] = complete vs cholesterol-free media, greater than 0 enhanced anti-cancer activity, about 0 neutral, below 0 antagonists
[16] = NCI-H292 cells, drug in cholesterol-free media with simvastatin 0.04 μM
[17] = NCI-H292 cells, drug in complete media
[18] = complete media vs cholesterol-free media + simvastatin (0.04 μM), >0 enhanced anti-cancer activity, about 0 neutral, <0 antagonist
[19] = Complete minus Cholesterol-free, greater than 0 enhanced anti-cancer activity, about 0 neutral, below 0 antagonist
[20] = NCI-H292 cells, cholesterol-free media with simvastatin 0.04 μM, FDA drug library screen (TABLE 2)
[21] = NCI-H292 cells, complete media, FDA drug library screen (TABLE 2)
[22] = complete media minus cholesterol-free media + simvastatin (0.04 μM), >0 enhanced anti-cancer activity, about 0 neutral, <0 antagonist
[23] = NCI-H292 cells, cholesterol-free media without statin, FDA drug library screen
[24] = NCI-H292 cells, complete media, FDA drug library screen
[25] = NCI-H292 cells, FDA drug library screen, cholesterol-free media with simvastatin 0.04 μM

## N#Cc1ccc(C2CCCc3cncn32)cc1 (centres unmarked) [Fadrozole hydrochloride]
[1]
  Cholesterol-free: 1.643
  Complete: 1.101
  Difference: −0.54
[2]
  Cholesterol-free media + simvastatin (0.04 μM): 0.9854
  Complete Media: 0.9477
  Difference: −0.04

## O=C([O-])CCSC[C@H]1O[C@@H]2O[C@H]3[C@H](O)[C@@H](O)[C@@H](O[C@H]4[C@H](O)[C@@H](O)[C@@H](O[C@H]5[C@H](O)[C@@H](O)[C@@H](O[C@H]6[C@H](O)[C@@H](O)[C@@H](O[C@H]7[C@H](O)[C@@H](O)[C@@H](O[C@H]8[C@H](O)[C@@H](O)[C@@H](O[C@H]9[C@H](O)C(O)[C@@H](O[C@H]1[C@H](O)[C@H]2O)O[C@@H]9CSCCC(=O)[O-])O[C@@H]8CSCCC(=O)[O-])O[C@@H]7CSCCC(=O)[O-])O[C@@H]6CSCCC(=O)[O-])O[C@@H]5CSCCC(=O)[O-])O[C@@H]4CSCCC(=O)[O-])O[C@@H]3CSCCC(=O)[O-].[Na+].[Na+].[Na+].[Na+].[Na+].[Na+].[Na+].[Na+] (some centres unmarked) [Sugammadex (sodium)]
[1]; [3]
  Difference: −0.11
[1]; [4]
  Cholesterol-free: 1.596
[1]; [5]
  Complete: 1.487
[2]; [6]
  Cholesterol-free media + simvastatin (0.04 μM): 0.9061
[2]; [7]
  Complete Media: 0.9946
[2]; [8]
  Difference: 0.09

## CC(=O)OCC(=O)[C@@]1(O)CC[C@H]2[C@@H]3CCC4=CC(=O)C=C[C@]4(C)[C@H]3C(=O)C[C@@]21C [Prednisone acetate]
[1]; [3]
  Difference: −0.20
[1]; [9]
  Cholesterol-free: 0.9782
[1]; NCI-H292 cells, complete media
  Complete: 0.7806
[2]; [10]
  Cholesterol-free media + simvastatin (0.04 μM): 0.9605
[2]; [11]
  Complete Media: 0.6606
[2]; complete media vs cholesterol-free media + simvastatin (0.04 μM), […]
  Difference: −0.30

## CC(S)C(=O)NCC(=O)O (centres unmarked) [Tiopronin]
[1]; [12]
  Difference: −0.20
[1]; [9]
  Cholesterol-free: 0.9241
[1]; NCI-H292 cells, complete media
  Complete: 0.7208
[2]; [13]
  Cholesterol-free media + simvastatin (0.04 μM): 1.026
[2]; [14]
  Difference: 0.12

## Cc1cnc(C(=O)NCCc2ccc(S(=O)(=O)NC(=O)NC3CCCCC3)cc2)cn1 [Glipizide]
[1]; [9]
  Cholesterol-free: 1.844
[1]; NCI-H292 cells, complete media
  Complete: 1.46
[1]; [15]
  Difference: −0.38
[2]; [16]
  Cholesterol-free media + simvastatin (0.04 μM): 1.42
[2]; [17]
  Complete Media: 1.2
[2]; [18]
  Difference: −0.22

## Cc1c(OCC(F)(F)F)ccnc1C[S@@+]([O-])c1nc2ccccc2[nH]1 [(R)-Lansoprazole]
[1]; [19]
  Difference: −0.18
[1]; [4]
  Cholesterol-free: 0.9835
[1]; [5]
  Complete: 0.8054
[2]; [20]
  Cholesterol-free media + simvastatin (0.04 μM): 1.431
[2]; [21]
  Complete Media: 1.389
[2]; [22]
  Difference: −0.04

## CN(C)CCN(Cc1ccc(Cl)cc1)c1ccccn1 [Chloropyramine hydrochloride]
[1]; [19]
  Difference: −0.17
[1]; [4]
  Cholesterol-free: 1.558
[1]; [5]
  Complete: 1.385
[2]; [13]
  Cholesterol-free media + simvastatin (0.04 μM): 0.999
[2]; NCI-H292 cells, complete media, cell growth value in FDA drug screen
  Complete Media: 1.055
[2]; [14]
  Difference: 0.06

## Cc1cc2c(cc1S(N)(=O)=O)S(=O)(=O)CCC2 [Meticrane]
[1]; [12]
  Difference: −0.25
[1]; [9]
  Cholesterol-free: 1.363
[1]; NCI-H292 cells, complete media
  Complete: 1.109
[2]; [10]
  Cholesterol-free media + simvastatin (0.04 μM): 1.393
[2]; [11]
  Complete Media: 0.8316
[2]; [18]
  Difference: −0.56

## CC(=O)Nc1cccc(-n2c(=O)n(C3CC3)c(=O)c3c(Nc4ccc(I)cc4F)n(C)c(=O)c(C)c32)c1 [Trametinib (DMSO solvate)]
[1]; [12]
  Difference: 0.00
[1]; [23]
  Cholesterol-free: 0.2835
[1]; [24]
  Complete: 0.2824
[2]; [25]
  Cholesterol-free media + simvastatin (0.04 μM): 0.4848
[2]; [5]
  Complete Media: 0.3787
[2]; [18]
  Difference: −0.11

## COc1ccnc(C[S+]([O-])c2nc3cc(OC(F)F)ccc3[n-]2)c1OC.[Na+] (centres unmarked) [Pantoprazole (sodium)]
[1]; [3]
  Difference: −0.01
[1]; [23]
  Cholesterol-free: 0.8197
[1]; [24]
  Complete: 0.8107
[2]; [6]
  Cholesterol-free media + simvastatin (0.04 μM): 1.655
[2]; [7]
  Complete Media: 1.781
[2]; [8]
  Difference: 0.13

## CCCCOC(=O)c1ccc(N)cc1 [Butamben]
[1]; [12]
  Difference: −0.20
[1]; [9]
  Cholesterol-free: 1.171
[1]; NCI-H292 cells, complete media
  Complete: 0.9712
[2]; [10]
  Cholesterol-free media + simvastatin (0.04 μM): 1.665
[2]; [11]
  Complete Media: 1.081
[2]; [18]
  Difference: −0.58

## Cc1cc(Nc2ncc(Cl)c(Nc3ccccc3S(=O)(=O)C(C)C)n2)c(OC(C)C)cc1C1CCNCC1 [Ceritinib]
[1]; [12]
  Difference: −0.05
[1]; [23]
  Cholesterol-free: 0.1038
[1]; [24]
  Complete: 0.05759
[2]; [20]
  Cholesterol-free media + simvastatin (0.04 μM): 0.1163
[2]; [21]
  Complete Media: 0.0662
[2]; [22]
  Difference: 0.05

## CCCCOc1cc(C(=O)NCCN(CC)CC)c2ccccc2n1 [Dibucaine (hydrochloride)]
[1]; Complete minus Cholesterol-free, greater than 0 enhanced anti-cancer activity, about 0 neutral, below 0 antagonists
  Difference: −0.71
[1]; NCI-H292 cells in cholesterol-free media without statin
  Cholesterol-free: 1.433
[1]; NCI-H292 cells in complete media
  Complete: 0.7196
[2]; [25]
  Cholesterol-free media + simvastatin (0.04 μM): 0.7966
[2]; [5]
  Complete Media: 1.391
[2]; [14]
  Difference: 0.59

## CCN1CCCC(OC(=O)C(c2ccccc2)c2ccccc2)C1 (centres unmarked) [Piperidolate]
[1]
  Cholesterol-free: 1.19
  Complete: 0.6819
  Difference: −0.51
[2]
  Cholesterol-free media + simvastatin (0.04 μM): 0.8957
  Complete Media: 1.487
  Difference: 0.59

## O=c1[nH]c2ccccc2n1C1CCN(CCCC(c2ccc(F)cc2)c2ccc(F)cc2)CC1 [Pimozide]
[1]; [9]
  Cholesterol-free: 1.1
[1]; NCI-H292 cells, complete media
  Complete: 0.6361
[1]; [15]
  Difference: −0.46
[2]; [25]
  Cholesterol-free media + simvastatin (0.04 μM): 0.8031
[2]; [5]
  Complete Media: 0.9681
[2]; [14]
  Difference: 0.16

## CC(C)(C)NCC(O)COc1cccc2c1CC(O)C(O)C2 (centres unmarked) [Nadolol]
[1]; [12]
  Difference: −0.30
[1]; [9]
  Cholesterol-free: 1.37
[1]; NCI-H292 cells, complete media
  Complete: 1.069
[2]; [10]
  Cholesterol-free media + simvastatin (0.04 μM): 1.308
[2]; [11]
  Complete Media: 1.014
[2]; [18]
  Difference: −0.29

## C[C@H](CCC(=O)O)[C@H]1CC[C@H]2[C@@H]3[C@@H](O)C[C@@H]4C[C@H](O)CC[C@]4(C)[C@H]3CC[C@]12C [Ursodiol]
[1]; [9]
  Cholesterol-free: 1.392
[1]; NCI-H292 cells, complete media
  Complete: 0.9832
[1]; [15]
  Difference: −0.41
[2]; [25]
  Cholesterol-free media + simvastatin (0.04 μM): 1.413
[2]; [5]
  Complete Media: 1.314
[2]; [18]
  Difference: −0.10

## O=C(c1ccc(F)c(F)c1Nc1ccc(I)cc1F)N1CC(O)([C@@H]2CCCCN2)C1 [Cobimetinib]
[1]; [12]
  Difference: −0.06
[1]; [23]
  Cholesterol-free: 0.2958
[1]; [24]
  Complete: 0.2361
[2]; [20]
  Cholesterol-free media + simvastatin (0.04 μM): 0.5825
[2]; [21]
  Complete Media: 0.5258
[2]; [22]
  Difference: −0.06

## CN(C)C(=O)c1ccc(S(=O)(=O)c2ccc(NC(=O)[C@@](C)(O)C(F)(F)F)c(Cl)c2)cc1 [AZD7545]
[1]; [3]
  Difference: −0.01
[1]; [23]
  Cholesterol-free: 0.721
[1]; [24]
  Complete: 0.7125
[2]; [25]
  Cholesterol-free media + simvastatin (0.04 μM): 0.8136
[2]; [5]
  Complete Media: 1.088
[2]; [8]
  Difference: 0.27

## Cobimetinib (hemifumarate)
[1]; [12]
  Difference: 0.01
[1]; [23]
  Cholesterol-free: 0.2855
[1]; [24]
  Complete: 0.2917
[2]; [16]
  Cholesterol-free media + simvastatin (0.04 μM): 0.5239
[2]; [17]
  Complete Media: 0.3203
[2]; [18]
  Difference: −0.20

## C[C@]12C=CC(=O)C=C1CC[C@@H]1[C@@H]2[C@@H](O)C[C@@]2(C)[C@H]1CC[C@]2(O)C(=O)CO [Prednisolone]
[1]; [12]
  Difference: −0.02
[1]; [23]
  Cholesterol-free: 0.4941
[1]; [24]
  Complete: 0.4768
[2]; [16]
  Cholesterol-free media + simvastatin (0.04 μM): 0.6412
[2]; [17]
  Complete Media: 0.4437
[2]; [18]
  Difference: −0.20

## O=C([O-])c1ccccc1O.[Na+] [Sodium Salicylate]
[1]
  Cholesterol-free: 1.153
  Complete: 0.943
  Difference: −0.21
[2]
  Cholesterol-free media + simvastatin (0.04 μM): 1.29
  Complete Media: 1.045
  Difference: −0.24
